In patent US20030004172A1, “Fused pyrimidinone matrix metalloproteinase inhibitors” (priority 2001, published 2003):

These compounds were tested against MMP-13CD (catalytic domain of collagenase-3) (Homo sapiens, UniProt P45452) (assay: Thiopeptolide substrate hydrolysis inhibition assay, MMP-13CD). Settings: Table I; thiopeptolide substrate, HEPES pH 7.0, 22° C.; read-out: MMP-13CD IC50.
Type: biochemical
Excerpt: Thiopeptolide substrates show virtually no decomposition or hydrolysis at or below neutral pH in the absence of a matrix metalloproteinase enzyme.

SMILES	IC50
CCOCCOC(=O)c1cc2c(=O)n(Cc3ccccc3)c(=O)n(C)c2s1 [Example 210, 3-Benzyl-1-methyl-2,4-dioxo-1,2,3,4-tetrahydro-thieno[2,3-d]pyrimidine-6-carboxylic acid 2-ethoxy-ethyl ester]	1.2 µM
Cn1c(=O)n(Cc2ccccc2)c(=O)c2cc(C(=O)OC(C#N)c3ccccc3)sc21 (stereo not shown) [Example 211, 3-Benzyl-1-methyl-2,4-dioxo-1,2,3,4-tetrahydro-thieno[2,3-d]pyrimidine-6-carboxylic acid cyano-phenyl-methyl ester]	2.1 µM
Cn1c(=O)n(Cc2ccccc2)c(=O)c2cc(C(=O)NCc3ccc(C(F)(F)F)cc3)sc21 [Example 212, 3-Benzyl-1-methyl-2,4-dioxo-1,2,3,4-tetrahydro-thieno[2,3-d]pyrimidine-6-carboxylic acid 4-trifluoromethyl-benzylamide]	0.67 µM
Cc1ccc(CNC(=O)c2cc3c(=O)n(Cc4ccccc4)c(=O)n(C)c3s2)cc1 [Example 213, 3-Benzyl-1-methyl-2,4-dioxo-1,2,3,4-tetrahydro-thieno[2,3-d]pyrimidine-6-carboxylic acid 4-methyl-benzylamide]	1.7 µM
Cn1c(=O)n(Cc2ccccc2)c(=O)c2cc(C(=O)NCCc3ccccc3)sc21 [Example 214, 3-Benzyl-1-methyl-2,4-dioxo-1,2,3,4-tetrahydro-thieno[2,3-d]pyrimidine-6-carboxylic acid phenethyl-amide]	20 µM
Cn1c(=O)n(Cc2ccccc2)c(=O)c2cc(C(=O)NC3CC3)sc21 [Example 215, 3-Benzyl-1-methyl-2,4-dioxo-1,2,3,4-tetrahydro-thieno[2,3-d]pyrimidine-6-carboxylic acid cyclopropylamide]	24 µM
COc1ccc(CNC(=O)c2cc3c(=O)[nH]c(=O)n(C)c3s2)cc1 [Example 216]	18 µM
COc1cccc(CNC(=O)c2cc3c(=O)[nH]c(=O)n(C)c3s2)c1 [Example 218]	18 µM
COc1cc(CNC(=O)c2cc3c(=O)[nH]c(=O)n(C)c3s2)ccn1 [Example 219, 1-methyl-2,4-dioxo-1,2,3,4-tetrahydro-thieno[2,3-d]pyrimidine-6-carboxylic acid (2-methoxy-pyridin-4-ylmethyl)-amide]	17 µM
COc1ccc(CNC(=O)c2cc3c(=O)n(Cc4ccc(-c5noc(=O)[nH]5)cc4)c(=O)n(C)c3s2)cc1 [Example 221, 1-Methyl-2,4-dioxo-3-[4-(5-oxo-4,5-dihydro-1,2,4-oxadiazol-3-yl)-benzyl]-1,2,3,4-tetrahydro-thieno[2,3-d]pyrimidine-6-carboxylic acid 4-methoxy-benzylamide]	0.0046 µM
COc1ccc(CNC(=O)c2cc3c(=O)n(Cc4ccc(-c5noc(=S)[nH]5)cc4)c(=O)n(C)c3s2)cc1 [Example 222, 1-Methyl-2,4-dioxo-3-[4-(5-thioxo-4,5-dihydro-1,2,4-oxadiazol-3-yl)-benzyl]-1,2,3,4-tetrahydro-thieno[2,3-d]pyrimidine-6-carboxylic acid 4-methoxy-benzylamide]	0.0042 µM
COc1ccc(CNC(=O)c2cc3c(=O)n(C/C=C/C(=O)O)c(=O)n(C)c3s2)cc1 [Example 226, (E)-4-[6-(4-Methoxy-benzylcarbamoyl)-1-methyl-2,4-dioxo-1,4-dihydro-2H-thieno[2,3-d]pyrimidin-3-yl]-but-2-enoic acid]	4.9 µM
COc1ccc(CNC(=O)c2cc3c(=O)n(CCS(=O)(=O)c4ccccc4)c(=O)n(C)c3s2)cc1 [Example 227, 3-(2-Benzenesulfonyl-ethyl)-1-methyl-2,4-dioxo-1,2,3,4-tetrahydro-thieno[2,3-d]pyrimidine-6-carboxylic acid 4-methoxy-benzylamide]	3.8 µM
